Assay: Inhibitory concentration against protein phosphatase 1 (PP1) using pNPP assay
Compound `CO[C@@H](Cc1ccccc1)[C@@H](C)/C=C(C)/C=C/[C@H](NC(C)=O)[C@H](C)C(=O)N1CCCC1` [N-[(2E,4E)-(1S,6S,7S)-7-Methoxy-4,6-dimethyl-1-((S)-1-methyl-2-oxo-2-pyrrolidin-1-yl-ethyl)-8-phenyl-octa-2,4-dienyl]-acetamide] has an IC50 greater than 100 µM.
`CO[C@@H](Cc1ccccc1)[C@@H](C)/C=C(C)/C=C/[C@H](NC(C)=O)[C@H](C)C(=O)N1C[C@H](O[Si](C(C)C)(C(C)C)C(C)C)C[C@@H]1C(=O)O` [(2R,4R)-1-((4E,6E)-(2S,3S,8S,9S)-3-Acetylamino-9-methoxy-2,6,8-trimethyl-10-phenyl-deca-4,6-dienoyl)-4-triisopropylsilanyloxy-pyrrolidine-2-carboxylic acid] showed an IC50 greater than 100 µM.
Compound `CO[C@@H](Cc1ccccc1)[C@@H](C)/C=C(C)/C=C/[C@H](NC(C)=O)[C@H](C)C(=O)N1[C@H](C(=O)O)CC[C@H]1C(=O)O` [(2S,5S)-1-((4E,6E)-(2S,3S,8S,9S)-3-Acetylamino-9-methoxy-2,6,8-trimethyl-10-phenyl-deca-4,6-dienoyl)-pyrrolidine-2,5-dicarboxylic acid] has an IC50 greater than 50 µM.
Compound `CO[C@@H](Cc1ccccc1)[C@@H](C)/C=C(C)/C=C/[C@H](NC(C)=O)[C@H](C)C(=O)N1CCC[C@@H]1C(=O)O` [(R)-1-((4E,6E)-(2S,3S,8S,9S)-3-Acetylamino-9-methoxy-2,6,8-trimethyl-10-phenyl-deca-4,6-dienoyl)-pyrrolidine-2-carboxylic acid] has an IC50 greater than 55 µM.
For `COC(=O)[C@@H]1CCCN1C(=O)[C@@H](C)[C@H](/C=C/C(C)=C/[C@H](C)[C@H](Cc1ccccc1)OC)NC(C)=O` [(S)-1-((4E,6E)-(2S,3S,8S,9S)-3-Acetylamino-9-methoxy-2,6,8-trimethyl-10-phenyl-deca-4,6-dienoyl)-pyrrolidine-2-carboxylic acid methyl ester], the IC50 was greater than 100 µM.
`CO[C@@H](Cc1ccccc1)[C@@H](C)/C=C(C)/C=C/[C@H](NC(C)=O)[C@H](C)C(=O)N1C[C@H](C(=O)O)C[C@H]1C(=O)O` [(2S,4R)-1-((4E,6E)-(2S,3S,8S,9S)-3-Acetylamino-9-methoxy-2,6,8-trimethyl-10-phenyl-deca-4,6-dienoyl)-pyrrolidine-2,4-dicarboxylic acid] showed an IC50 greater than 100 µM.
`CO[C@@H](Cc1ccccc1)[C@@H](C)/C=C(C)/C=C/[C@H](NC(C)=O)[C@H](C)C(=O)N1C[C@H](C(=O)O)C[C@@H]1C(=O)O` [(2R,4R)-1-((4E,6E)-(2S,3S,8S,9S)-3-Acetylamino-9-methoxy-2,6,8-trimethyl-10-phenyl-deca-4,6-dienoyl)-pyrrolidine-2,4-dicarboxylic acid] showed an IC50 greater than 100 µM.
For `CO[C@@H](Cc1ccccc1)[C@@H](C)/C=C(C)/C=C/[C@H](NC(C)=O)[C@H](C)C(=O)N(CC(=O)O)CC(=O)O` [[((4E,6E)-(2S,3S,8S,9S)-3-Acetylamino-9-methoxy-2,6,8-trimethyl-10-phenyl-deca-4,6-dienoyl)-carboxymethyl-amino]-acetic acid], the IC50 was greater than 100 µM.
In the case of `CC(=O)N[C@@H](/C=C/C(C)=C/CCCc1ccccc1)[C@H](C)C(=O)N[C@H](C)C(=O)O` [(R)-2-((4E,6E)-(2S,3S)-3-Acetylamino-2,6-dimethyl-10-phenyl-deca-4,6-dienoylamino)-propionic acid], the IC50 is reported as greater than 100 µM.
For `CO[C@@H](Cc1ccccc1)[C@@H](C)/C=C(C)/C=C/[C@H](NC(C)=O)[C@H](C)C(=O)N1[C@@H](C(=O)O)CC[C@H]1C(=O)O` [(2R,5S)-1-((4E,6E)-(2S,3S,8S,9S)-3-Acetylamino-9-methoxy-2,6,8-trimethyl-10-phenyl-deca-4,6-dienoyl)-pyrrolidine-2,5-dicarboxylic acid], the IC50 was greater than 50 µM.
Compound `CO[C@@H](Cc1ccccc1)[C@@H](C)/C=C(C)/C=C/[C@H](NC(C)=O)[C@H](C)C(=O)N[C@H](C)C(=O)O` [(R)-2-((4E,6E)-(2S,3S,8S,9S)-3-Acetylamino-9-methoxy-2,6,8-trimethyl-10-phenyl-deca-4,6-dienoylamino)-propionic acid] has an IC50 of 25 µM.
In the case of `CO[C@@H](Cc1ccccc1)[C@@H](C)/C=C(C)/C=C/[C@H](NC(C)=O)[C@H](C)C(=O)N1C[C@@H](C(=O)O)C[C@@H]1C(=O)O` [(2R,4S)-1-((4E,6E)-(2S,3S,8S,9S)-3-Acetylamino-9-methoxy-2,6,8-trimethyl-10-phenyl-deca-4,6-dienoyl)-pyrrolidine-2,4-dicarboxylic acid], the IC50 is reported as greater than 100 µM.
In the case of `CO[C@@H](Cc1ccccc1)[C@@H](C)/C=C(C)/C=C/[C@H](NC(C)=O)[C@H](C)C(=O)N1CCC[C@H]1C(=O)O` [(S)-1-((4E,6E)-(2S,3S,8S,9S)-3-Acetylamino-9-methoxy-2,6,8-trimethyl-10-phenyl-deca-4,6-dienoyl)-pyrrolidine-2-carboxylic acid], the IC50 is reported as greater than 100 µM.
With `COC(=O)[C@H]1CCCN1C(=O)[C@@H](C)[C@H](/C=C/C(C)=C/[C@H](C)[C@H](Cc1ccccc1)OC)NC(C)=O` [(R)-1-((4E,6E)-(2S,3S,8S,9S)-3-Acetylamino-9-methoxy-2,6,8-trimethyl-10-phenyl-deca-4,6-dienoyl)-pyrrolidine-2-carboxylic acid methyl ester] the IC50 was greater than 100 µM.
For `CC(=O)N[C@@H](/C=C/C(C)=C/c1ccccc1Cc1ccccc1)[C@H](C)C(=O)N[C@H](C)C(=O)O` [(R)-2-[(4E,6E)-(2S,3S)-3-Acetylamino-7-(2-benzyl-phenyl)-2,6-dimethyl-hepta-4,6-dienoylamino]-propionic acid], the IC50 was greater than 100 µM.
Work on `CC(=O)N[C@@H](/C=C/C(C)=C/c1ccc(-c2ccccc2)cc1)[C@H](C)C(=O)N[C@H](C)C(=O)O` [(R)-2-((4E,6E)-(2S,3S)-3-Acetylamino-7-biphenyl-4-yl-2,6-dimethyl-hepta-4,6-dienoylamino)-propionic acid] yielded an IC50 greater than 100 µM.

Assay: Inhibitory concentration against protein phosphatase 1 (PP1) using phosphorylase-a assay
`CO[C@@H](Cc1ccccc1)[C@@H](C)/C=C(C)/C=C/[C@H](NC(C)=O)[C@H](C)C(=O)NCC(=O)O` [((4E,6E)-(2S,3S,8S,9S)-3-Acetylamino-9-methoxy-2,6,8-trimethyl-10-phenyl-deca-4,6-dienoylamino)-acetic acid] showed an IC50 of 5.6 µM.
In the case of `CO[C@@H](Cc1ccccc1)[C@@H](C)/C=C(C)/C=C/[C@H](NC(C)=O)[C@H](C)C(=O)N[C@H](C)C(=O)O` [(R)-2-((4E,6E)-(2S,3S,8S,9S)-3-Acetylamino-9-methoxy-2,6,8-trimethyl-10-phenyl-deca-4,6-dienoylamino)-propionic acid], the IC50 is reported as 1 µM.
`CO[C@@H](Cc1ccccc1)[C@@H](C)/C=C(C)/C=C/[C@H](NC(C)=O)[C@H](C)C(=O)N[C@@H](C)C(=O)O` [(S)-2-((4E,6E)-(2S,3S,8S,9S)-3-Acetylamino-9-methoxy-2,6,8-trimethyl-10-phenyl-deca-4,6-dienoylamino)-propionic acid] gave an IC50 of 170 µM.

Reference: BindingDB's records for doi:10.1016/s0960-894x(03)00588-2 (University of California Irvine, 2003)
